Reference: patent US11739120B2, “Water soluble salts of lipidated peptides and methods for preparing and using the same” (Bridge Biotherapeutics, Inc., priority 2018, dated 2023)
Residues, ends and D or L forms follow the SMILES beside them. *: point of attachment. Palmitoyl = CCCCCCCCCCCCCCCC(=O)*

Key:
Format in all cases: physicochemical
[1] = Kinetic solubility of potassium salt Compound I-2 (further research); conditions: water; 25° C.
[2] = Hygroscopicity by Dynamic Vapor Sorption (DVS)
Protocol: A polymorph screening study on Compound I-1-Acid was also carried out, which identified Form 1. […] About 0.25% weight loss from 25° C. to 120° C. and about 0.42% weight loss from 120° C. to 150° C.
Compound I-2 can have different crystalline forms. Two different polymorphs, Forms A2 and B2 were identified. Form A2 can be prepared as follows. Specifically, the white solid of Compound I-2 obtained above was dissolved in 30 mL THF:water (95:5, v/v). […] The suspension was then allowed to be stirred at room temperature overnight. After which, the solid was filtered, washed with THF:water:MTBE=7.5:1:53 (25 mL*3) to remove excess KOH, and then dried under vacuum at 25° C. overnight to provide Form A2.

[3] = Crystalline stability of Form A2 of Compound I-2 on storage; conditions: 25° C./92.5% RH, 40° C./75% RH, 60° C.; 25 days
[4] = Solubility of amorphous, Form A and Form E of Compound I-1 in water (shaken at 25° C., HPLC); conditions: for Final pH: mother liquor; for Final pH / Solubility at 25° C.: water; for Final pH / XRPD pattern (wet): 25° C.; for XRPD pattern (wet): residue of the suspension in water
Protocol: The solubility of amorphous, Form A or E of Compound I-1 in water was further studied. Specifically, about 250 mg Compound I-1 in amorphous, Forms A and E were each suspended in a 2 mL HPLC vial with 0.9 mL of water. Each suspension was then shaken at 25° C. under 1000 rpm. The suspensions were analyzed at 1 h and 24 h. In particular, at either the 1 h or 24 h time point, the slurries were centrifuged and analyzed by HPLC. The pH values of the mother liquors were measured, and the residues were characterized by XRPD.

| SMILES | solubility kinetic [1] | hygroscopicity (DVS) [2] | water absorption (DVS isotherm) [2] | crystalline stability on storage [3] | Final pH ([4]; time point 1 hour) | Final pH ([4]; time point 24 hours) | XRPD pattern (wet) ([4]; time point 1 hour) | Solubility at 25° C. ([4]; time point 24 hours) |
| --- | --- | --- | --- | --- | --- | --- | --- | --- |
| CCCCCCCCCCCCCCCC(=O)N1CCC[C@H]1C(=O)N1CCC[C@H]1C(=O)NCC(=O)N[C@@H](Cc1ccc(O)cc1)C(=O)[O-].[K+] [Compound I-2] (Palmitoyl-PPGY-OH) | 166 to 200 mg/mL |  |  |  |  |  |  |  |
| CCCCCCCCCCCCCCCC(=O)N1CCC[C@H]1C(=O)N1CCC[C@H]1C(=O)NCC(=O)N[C@@H](Cc1ccc(O)cc1)C(=O)[O-].[K+] [Form A2] (Palmitoyl-PPGY-OH) |  | hygroscopic | about 8% | stable |  |  |  |  |
| CCCCCCCCCCCCCCCC(=O)N1CCC[C@H]1C(=O)N1CCC[C@H]1C(=O)NCC(=O)N[C@@H](Cc1ccc(O)cc1)C(=O)[O-].[Na+] [Form A] (Palmitoyl-PPGY-OH) |  |  |  |  | 8.91 | 8.70 | A + D | 208.6 mg/mL |
| CCCCCCCCCCCCCCCC(=O)N1CCC[C@H]1C(=O)N1CCC[C@H]1C(=O)NCC(=O)N[C@@H](Cc1ccc(O)cc1)C(=O)[O-].[Na+] [Form E] (Palmitoyl-PPGY-OH) |  |  |  |  | 9.08 | 8.70 | A + D | 199.4 mg/mL |
